Assays:
HT-29 xenograft = assay: In vivo therapeutic efficacy in tumor bearing animal model; design: species or system NOD/SCID mice; settings: oral, 10 mg/kg DOX, over 12 days
Method: In vivo therapeutic efficacy in a tumor bearing animal model. The in vivo anticancer efficacy of free DOX, the cationic DOX-loaded liposome without a bile acid coating (“DOX-liposome”), and the anionic DOX-loaded liposome with the CS-TCA coating (“DL/CS-TCA”) was evaluated in a xenograft mouse model. HT-29 cells (1×10^7 cells per mouse) were subcutaneously injected into the back of NOD/SCID mice (n=3). When the tumor size reached approximately 100-150 mm^3, each mouse received an oral administration of PBS, 10 mg/kg free DOX, 10 mg/kg DOX in the DOX-liposome composition, or 10 mg/kg DOX in the DL/CS-TCA composition, once every two days. Tumor size and body weight were measured every 2 days. Tumor volumes were measured with a digital caliper and the tumor volume was calculated using the equation shown below. Tumor volume=(Length×width^2)/2

[1] = DOX biodistribution in tumor-bearing mice (DOX fluorescence); type: in vivo, HepG2 tumor-bearing NOD/SCID mice; settings: IV injection, 4 hr, versus orally administered groups
Method: Biodistribution. A biodistribution study was performed in HepG2 tumor-bearing NOD/SCID mice. The major organs and intestinal tract of each mouse were collected 4 hr after administration of the formulations. The liver, kidney, heart, stomach, small intestine including duodenum, jejunum, ileum, and tumor of each mouse was collected and suspended in 70% ethanol with 0.3 N HCl. The samples were then homogenized to extract the doxorubicin, and then the samples were refrigerated for 24 hr and centrifuged to collect supernatant. For analysis, 200 μL of the supernatant was loaded in a black opaque plate and DOX fluorescence was measured using a plate reader, where the wavelengths of excitation and emission were 470 and 590 nm, respectively.

[2] = cited from earlier work
[3] = cited from earlier work; remark: listed apart in the source
HepG2 cells = assay: In vitro cytotoxicity of polymers and DOX-loaded particles, MTT assay; type: cell-based, human; settings: 0.01-100 ug/mL, 24, 48 and 72 hr
Method: In vitro cytotoxicity of DOX-loaded particles. To evaluate the cytotoxicity of the polymers and DOX-loaded particles, samples were transfected in a dose-dependent manner and evaluated by an MTT-based cell viability assay using HepG2 cells. Cell Culture: HepG2 cells (a human hepatoma cell line) were cultured in DMEM supplemented with 10% FBS and D-glucose (4.5 g/L). Cells were grown and maintained under humidified air containing 5% CO2 at 37° C. Cell Viability: a MTT assay was used to evaluate the cell viability of bile acid-linked polymers and DOX-loaded particles. HepG2 cells were seeded into a 96-well plate at a cell density of 5×10^3 cells/well in 100 μL media. […] MTT (10 μL; 5 mg/mL) solution was then added to the wells and incubated for 4 hr. All remaining media was aspirated, and DMSO (100 μL) was added to dissolve the formazan crystals produced from living cells with 10 min incubation at 37° C. The absorbance of the cells was measured at 570 nm and their cell viability was calculated.

[4] = tested on: HepG2 xenograft mouse model; assay: In vivo efficacy in tumor bearing animal model
Method: In vivo efficacy in a tumor bearing animal model. The in vivo anticancer efficacy of free DOX and the DDP/H-TCA composition was evaluated in a HepG2 xenograft mouse model. Animals which were treated with free DOX delivered via both orally and via IV administration were used as a control group, and DDP/H-TCA compositions were administered orally every 3 days at a dose of 4 mg DOX/kg, up to 18 days.
HepG2 cells (5×10^6 cells/mL) in 100 μL PBS were injected subcutaneously into the back of each mouse. When the tumor size reached approximately 100-150 mm^3, each mouse received an oral administration of PBS, 4 mg/kg DOX, or 4 mg/kg DOX in a DDP/H-TCA composition, once every three days. In addition, an equal amount of doxorubicin was intravenously (IV) administered in a control group. Tumors were measured every three days with a digital caliper and the tumor volume was calculated using the equation shown below.
To achieve a relatively high concentration, the lyophilized powder of DDP/H-TCA particles was reconstituted in DI water just prior to in vivo administration. First, the tumor growth inhibition efficacy of bile acid-coated DOX-loaded particles was investigated in a mouse xenograft model. Doxorubicin (DOX) at a dose of 4 mg/kg, or an equivalent amount of DOX formulated as DDP/H-TCA particles, was prepared and delivered via IV or oral administration every 3 days up to 18 days to monitor tumor progression. DOX-loaded particles without a bile acid (i.e. no TCA) were also tested as a non-targeted control formulation to evaluate the tumor inhibition efficacy of the TCA. Because tumors in the PBS control group were quite aggressive and reached over 10% of the animals' body weight around day 18, all treatments were terminated and all mice were sacrificed at day 18.

caco-2 cells = assay: In vitro cellular uptake of insulin-Ce6 liposomes; type: cell-based, Human; settings: insulin-Ce6 10 ug/mL, 4 hr
Method: In vitro cellular uptake. Human epithelial colorectal adenocarcinoma cells (caco-2 cells) were maintained in Dulbeco's Modified Eagle's Medium (DMEM) with 1% penicillin-streptomycin and 10% FBS in a humidified standard incubator at 37° C. with a 5% CO2 atmosphere. Prior to testing, cells (1×10^5 cells/mL) that were grown as a monolayer were harvested via trypsinization using a 0.25% (wt/vol) trypsin/0.03% (wt/vol) EDTA solution. Caco-2 cells suspended in DMEM were seeded onto each well plate and cultured for 24 hours prior to the in vitro cell testing. The cellular uptake of the liposomes (provided in an amount equivalent to an insulin-Ce6 concentration of 10 ug/mL, treated for 4 hr) was monitored by FACSCalibur Flow Cytometer (Becton Dickinson, USA). In addition, the localization of the liposome was examined by fluorescence of the insulin-Ce6 loaded liposome using a confocal laser scanning microscope.

Row | Compound | change in tumor volume (HT-29 xenograft) | relative body weight (HT-29 xenograft) | DOX concentration in heart and liver tissues [1] | pKa [2] | oral bioavailability [3] | cytotoxicity (cell viability) (HepG2 cells) | body weight ([4]; 4 mg DOX/kg every 3 days up to 18 days) | inhibition of tumor growth ([4]; IV, 4 mg/kg every 3 days, up to 18 days) | increase in tumor volume ([4]; oral, 4 mg DOX/kg every 3 days, up to 18 days) | labeled insulin present in cells (caco-2 cells)
1 | COc1cccc2c1C(=O)c1c(O)c3c(c(O)c1C2=O)C[C@@](O)(C(=O)CO)C[C@@H]3O[C@H]1C[C@H](N)[C@H](O)[C@H](C)O1 [DOX, doxorubicin] | not statistically better at reducing tumor volume than the buffer | decrease slightly | higher concentration of DOX was seen in the heart and liver tissues | 7.2-8.0 | about 5% | highest dose-dependent cytotoxicity | no significant weight loss | greatest inhibition of tumor growth | ~1400% | –
2 | free insulin: Ce6-labeled insulin given without liposomes | – | – | – | – | – | – | – | – | – | relatively little labeled insulin present

Source: patent US10350169B2, “Compositions and methods for bile acid particles” (UNIVERSITY OF UTAH RESEARCH FOUNDATION, priority 2014, dated 2019)
